The values below come from ChEMBL document CHEMBL4024732, “Discovery of a novel and potent class of anti-HIV-1 maturation inhibitors with improved virology profile against gag polymorphisms” (Bioorg Med Chem Lett, 2017).

Active and inactive are the calls of the source. The calls are words filed in the database; no cut-off is given here.

Data set [1] in a line: Inhibition of bevirimat-resistant HIV1 clade B NL4-3 CA-SP1 V370A mutant infected in human MT4 cells. The format is cell-based. Conditions: Human immunodeficiency virus 1, clade B NL4-3, MT4.
The nature of data set [2]: Inhibition of bevirimat-resistant HIV-1 clade A isolate I-2496 V370A mutant infected in human PBMC after 7 days by scintillation counting method. Conditions: Human immunodeficiency virus 1, clade A isolate I-2496, 168 h.
For data set [3], the system named is Human immunodeficiency virus 1. Nature of the data set: Ratio of compound effect in presence of 40% human serum to compound effect in absence of serum for antiviral activity against HIV1 by cell based assay. The format is functional.
Data set [4] is described as follows: Inhibition of bevirimat-resistant HIV-1 clade B isolate ASJM108 Gag V370A mutant infected in human PBMC after 7 days by scintillation counting method. Conditions: Human immunodeficiency virus 1, clade B isolate ASJM108, 168 h.
The nature of data set [5]: Inhibition of bevirimat-resistant HIV1 clade B NL4-3 CA-SP1 Q369H mutant infected in human MT4 cells. The format is cell-based. Conditions: Human immunodeficiency virus 1, clade B NL4-3, MT4.
A short description of data set [6]: Inhibition of bevirimat-resistant HIV-1 clade B isolate CC1/85 CA-SP1 V370A mutant infected in human PBMC measured after 7 days by scintillation counting method. Conditions: Human immunodeficiency virus 1, clade B isolate CC1/85, 168 h.
Data set [7] in a line: Inhibition of wild type HIV-1 clade B NL4-3 Gag polyprotein SP1 infected in human MT4 cells. The format is cell-based. Conditions: Human immunodeficiency virus 1, clade B NL4-3, MT4.
Data set [8] in a line: Inhibition of bevirimat-resistant HIV1 clade B NL4-3 CA-SP1 T371A mutant infected in human MT4 cells. Format: cell-based. Conditions: Human immunodeficiency virus 1, clade B NL4-3, MT4.
The test system of data set [9] is Human immunodeficiency virus 1. Nature of the data set: Inhibition of HIV1 Gag CA-SP1 cleavage infected in human PBMC at 10 uM measured after 8 days post infection by Western blot analysis. In general terms: In western blotting, separated proteins are transferred to a membrane and probed.
For data set [10], the system named is Human immunodeficiency virus 1. Nature of the data set: Antiviral activity against HIV1 isolate 96USNG031 infected in human PBMC. Format: functional. Conditions: Human immunodeficiency virus 1, isolate 96USNG031.
Data set [11] deals with Human immunodeficiency virus 1. The data set is described as follows: Antiviral activity against HIV1 isolate 01ET188 infected in human PBMC. The format is functional. Conditions: Human immunodeficiency virus 1, isolate 01ET188.
Data set [12] can be described thus: Cytotoxicity against human MT4 cells. The format is cell-based.
The test system of data set [13] is Human immunodeficiency virus 1. The data set is described as follows: Antiviral activity against HIV1 isolate 91BR014 infected in human PBMC. Format: functional. Conditions: Human immunodeficiency virus 1, isolate 91BR014.
For data set [14], the system named is Human immunodeficiency virus 1. Nature of the data set: Antiviral activity against HIV1 isolate 00KEKR1008 infected in human PBMC. The format is functional. Conditions: Human immunodeficiency virus 1, isolate 00KEKR1008.
Data set [15] has as its system Human immunodeficiency virus 1. The data set is described as follows: Inhibition of HIV1 Gag CA-SP1 cleavage infected in human PBMC at 0.0001 to 10 uM measured after 8 days post infection by Western blot analysis.
The test system of data set [16] is Human immunodeficiency virus 1. The data set is described as follows: Antiviral activity against HIV1 isolate 96THNP1538 infected in human PBMC. The format is functional. Conditions: Human immunodeficiency virus 1, isolate 96THNP1538.

For the compound `C=C(C)[C@@H]1CC[C@]2(C(=O)O)CC[C@]3(C)[C@H](CC[C@@H]4[C@@]5(C)CC[C@H](OC(=O)CC(C)(C)C(=O)O)C(C)(C)[C@@H]5CC[C@]43C)[C@@H]12` [BEVIRIMAT], the IC50 in data set [1] was 6510 nM; in data set [2], above 4000 nM; in data set [4], above 10000 nM; in data set [5], 383 nM; in data set [6], above 10000 nM; in [7], 270 nM. The compound also came in with an IC50 in data set [8] of 252 nM. Also, in data set [3], the Ratio worked out at 52. In addition, the inhibition entry in data set [9] was “Active”.
As for `CC[C@H](NC(=O)C(=O)[C@@]12CC[C@]3(C)[C@H](CC[C@@H]4[C@@]5(C)CC[C@H](OC(=O)CC(C)(C)C(=O)O)C(C)(C)[C@@H]5CC[C@]43C)C1=C(C(C)C)C(=O)C2)c1ccc(Cl)cc1`, the IC50 in data set [1] amounted to 372 nM; in [5], 62 nM; in data set [7] it was 54 nM; in [8], 26 nM.
The corresponding values for `CC(C)C1=C2[C@H]3CC[C@@H]4[C@@]5(C)CC[C@H](OC(=O)CC(C)(C)C(=O)O)C(C)(C)[C@@H]5CC[C@@]4(C)[C@]3(C)CC[C@@]2(C(=O)C(=O)N[C@@H](C)c2ccc(Cl)cc2)CC1=O` are 474 nM, 60 nM, 39 nM and 19 nM.
Regarding `CC(C)C1=C2[C@H]3CC[C@@H]4[C@@]5(C)CC[C@H](OC(=O)CC(C)(C)C(=O)O)C(C)(C)[C@@H]5CC[C@@]4(C)[C@]3(C)CC[C@@]2(C(=O)C(=O)NC2(c3ccc(Cl)cc3)CC2)CC1=O`, the IC50 is 25 nM in [1]; above 60 nM in data set [10]; above 60 nM in data set [11]; 14 nM in [2]; 51 nM in [4]; above 60 nM in [13]. Also, the IC50 in [14] is above 60 nM; in data set [5], 23 nM; in [6], 5 nM; in data set [16] it was above 60 nM; in data set [7] it was 17 nM; in [8], 8 nM. In addition, the Ratio in data set [3] is 9.7. This compound also registered a CC50 in [12] above 10000 nM. Further, the inhibition entry in data set [15] was “Active”.
As for `CC(C)C1=C2[C@H]3CC[C@@H]4[C@@]5(C)CC[C@H](OC(=O)CC(C)(C)C(=O)O)C(C)(C)[C@@H]5CC[C@@]4(C)[C@]3(C)CC[C@@]2(C(=O)C(=O)NC2(c3ccc(Cl)cc3)CCCC2)CC1=O`, the IC50 in [1] stood at 110 nM; in [5], 100 nM; in [7] it was 66 nM; in data set [8], 33 nM.

For orientation: IC50 means the concentration that inhibits the measured activity by half. Higher therefore signals a need for much substance. In general, CC50 refers to the concentration that lowers cell viability or growth by half. Lower therefore signals harm at low concentration.
